Assay results published in patent publication US8536354B2, “Steroidal ligands and their use in gene switch modulation” (Intrexon Corporation, priority 2008, dated 2013).
Where two headings read alike, the source gives them in different places.

How the values were obtained:
[1] = molecular target: T1, MsEcR (GAL4-EcR DEF with VP16-RXR-USP chimera) (Manduca sexta, UniProt P49883); experiment: Two-hybrid gene switch assay, luciferase reporter, MsEcR, mouse NIH3T3 cells
T1 sequence (P49883 1-556): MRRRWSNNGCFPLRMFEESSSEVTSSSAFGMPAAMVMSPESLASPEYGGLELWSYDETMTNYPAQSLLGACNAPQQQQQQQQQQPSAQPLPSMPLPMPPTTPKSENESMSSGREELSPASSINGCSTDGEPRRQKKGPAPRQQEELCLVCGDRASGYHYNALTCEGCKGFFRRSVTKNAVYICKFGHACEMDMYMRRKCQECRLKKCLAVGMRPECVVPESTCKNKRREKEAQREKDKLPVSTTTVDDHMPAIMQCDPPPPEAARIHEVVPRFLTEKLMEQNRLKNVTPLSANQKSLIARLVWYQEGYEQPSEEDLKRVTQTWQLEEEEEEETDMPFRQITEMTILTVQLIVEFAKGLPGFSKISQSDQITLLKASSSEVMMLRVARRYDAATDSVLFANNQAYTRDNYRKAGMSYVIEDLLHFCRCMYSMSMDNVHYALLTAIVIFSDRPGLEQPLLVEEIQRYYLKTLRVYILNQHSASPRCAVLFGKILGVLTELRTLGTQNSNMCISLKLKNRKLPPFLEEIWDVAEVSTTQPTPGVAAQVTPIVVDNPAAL
T1 sequence (P28702 1-533 partner): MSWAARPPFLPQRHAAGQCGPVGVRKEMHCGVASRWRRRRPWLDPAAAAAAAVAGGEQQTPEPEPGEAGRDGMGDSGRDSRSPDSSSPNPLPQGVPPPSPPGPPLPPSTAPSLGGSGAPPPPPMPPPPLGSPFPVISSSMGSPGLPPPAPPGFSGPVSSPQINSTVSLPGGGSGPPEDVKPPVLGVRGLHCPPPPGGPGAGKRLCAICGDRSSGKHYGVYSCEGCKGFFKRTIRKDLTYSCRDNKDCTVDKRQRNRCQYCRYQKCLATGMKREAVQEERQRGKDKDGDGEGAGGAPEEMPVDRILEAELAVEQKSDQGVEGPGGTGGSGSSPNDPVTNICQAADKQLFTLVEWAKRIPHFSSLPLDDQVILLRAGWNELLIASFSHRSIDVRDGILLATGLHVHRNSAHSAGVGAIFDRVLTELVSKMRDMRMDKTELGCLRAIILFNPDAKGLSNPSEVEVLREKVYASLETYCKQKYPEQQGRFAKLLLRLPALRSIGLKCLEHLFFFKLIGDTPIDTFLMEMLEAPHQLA

[2] = molecular target: T2, BaEcR (GAL4-EcR DEF with VP16-RXR-USP chimera) (Bemisia tabaci, UniProt A0A6M3RDR8); experiment: Two-hybrid gene switch assay, luciferase reporter, BaEcR, mouse NIH3T3 cells
T2 sequence (A0A6M3RDR8 115-530): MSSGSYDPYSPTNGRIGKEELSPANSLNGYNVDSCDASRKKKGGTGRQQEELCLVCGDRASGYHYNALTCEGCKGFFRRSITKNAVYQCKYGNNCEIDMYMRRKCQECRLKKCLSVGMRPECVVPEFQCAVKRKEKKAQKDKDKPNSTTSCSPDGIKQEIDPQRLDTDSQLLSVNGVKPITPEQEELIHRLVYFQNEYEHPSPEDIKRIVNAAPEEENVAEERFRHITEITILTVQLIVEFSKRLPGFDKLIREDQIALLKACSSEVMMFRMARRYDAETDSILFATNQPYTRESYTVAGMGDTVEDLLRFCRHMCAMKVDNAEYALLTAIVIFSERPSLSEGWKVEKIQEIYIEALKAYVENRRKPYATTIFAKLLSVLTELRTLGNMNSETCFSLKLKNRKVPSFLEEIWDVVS
T2 sequence (P28702 1-533 partner): T1 sequence (P28702 1-533 partner)

[3] = molecular target: T3, AmaEcR (GAL4-EcR DEF with VP16-RXR-USP chimera) (Amblyomma americanum, UniProt O44338); experiment: Two-hybrid gene switch assay, luciferase reporter, AmaEcR, mouse NIH3T3 cells
T3 sequence (O44338 255-570): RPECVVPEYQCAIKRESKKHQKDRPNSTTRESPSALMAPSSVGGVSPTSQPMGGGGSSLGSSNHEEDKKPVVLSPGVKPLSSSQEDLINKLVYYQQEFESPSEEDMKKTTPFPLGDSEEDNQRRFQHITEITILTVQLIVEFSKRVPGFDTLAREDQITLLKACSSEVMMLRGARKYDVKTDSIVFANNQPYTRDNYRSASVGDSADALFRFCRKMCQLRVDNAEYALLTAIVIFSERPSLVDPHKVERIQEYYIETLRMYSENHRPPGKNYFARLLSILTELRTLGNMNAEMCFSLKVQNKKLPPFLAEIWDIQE
T3 sequence (P28702 1-533 partner): T1 sequence (P28702 1-533 partner)

[4] = molecular target: wild-type Drosophila melanogaster EcR (DmEcR; GAL4-EcR DEF with VP16-RXR-USP chimera) (Drosophila melanogaster, UniProt P34021); experiment: Two-hybrid gene switch assay, luciferase reporter, wild-type DmEcR, mouse NIH3T3 cells; type: cell-based
Sequence of wild-type Drosophila melanogaster EcR (DmEcR; GAL4-EcR DEF with VP16-RXR-USP chimera) (P34021 with tags, fused parts or gaps limits assumed): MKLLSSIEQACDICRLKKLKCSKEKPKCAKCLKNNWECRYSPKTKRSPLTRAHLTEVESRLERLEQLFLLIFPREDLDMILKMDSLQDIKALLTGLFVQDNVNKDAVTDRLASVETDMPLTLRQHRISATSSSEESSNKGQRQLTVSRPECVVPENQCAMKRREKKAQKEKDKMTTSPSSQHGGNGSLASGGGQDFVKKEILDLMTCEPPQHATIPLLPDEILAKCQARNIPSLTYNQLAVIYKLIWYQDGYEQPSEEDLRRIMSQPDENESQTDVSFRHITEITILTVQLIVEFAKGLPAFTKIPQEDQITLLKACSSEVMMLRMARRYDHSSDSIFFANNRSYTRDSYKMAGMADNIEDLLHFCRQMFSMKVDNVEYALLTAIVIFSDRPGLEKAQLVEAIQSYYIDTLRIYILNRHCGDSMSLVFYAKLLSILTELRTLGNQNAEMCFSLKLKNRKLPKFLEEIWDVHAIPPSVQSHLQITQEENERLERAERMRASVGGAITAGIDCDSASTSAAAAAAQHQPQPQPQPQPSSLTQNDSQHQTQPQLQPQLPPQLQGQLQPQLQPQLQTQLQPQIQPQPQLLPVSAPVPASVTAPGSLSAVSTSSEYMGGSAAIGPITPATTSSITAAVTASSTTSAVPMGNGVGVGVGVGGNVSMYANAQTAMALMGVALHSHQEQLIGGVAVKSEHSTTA

[5] = molecular target: BmEcR (GAL4-EcR DEF with VP16-RXR-USP chimera) (Bombyx mori, UniProt P49881); experiment: Two-hybrid gene switch assay, luciferase reporter, BmEcR, mouse NIH3T3 cells; type: cell-based
Sequence of BmEcR (GAL4-EcR DEF with VP16-RXR-USP chimera) (P49881 other isoform, or with tags, fused parts or gaps, change not shown): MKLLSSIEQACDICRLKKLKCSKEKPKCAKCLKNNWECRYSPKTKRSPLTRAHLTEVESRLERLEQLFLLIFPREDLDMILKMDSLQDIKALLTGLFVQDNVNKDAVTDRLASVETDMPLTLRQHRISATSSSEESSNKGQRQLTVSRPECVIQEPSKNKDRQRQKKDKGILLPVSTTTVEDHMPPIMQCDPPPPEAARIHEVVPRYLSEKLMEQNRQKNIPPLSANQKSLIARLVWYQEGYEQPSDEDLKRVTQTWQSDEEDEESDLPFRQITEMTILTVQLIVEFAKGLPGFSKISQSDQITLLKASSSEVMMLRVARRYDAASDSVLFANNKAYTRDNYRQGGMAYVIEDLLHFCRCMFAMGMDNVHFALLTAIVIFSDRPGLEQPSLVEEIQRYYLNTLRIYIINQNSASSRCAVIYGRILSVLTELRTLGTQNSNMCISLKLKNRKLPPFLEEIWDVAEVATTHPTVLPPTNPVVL

[6] = system: NcEcR (GAL4-EcR DEF with VP16-RXR partner); experiment: Two-hybrid gene switch assay, luciferase reporter, NcEcR, mouse NIH3T3 cells
[7] = EC50, FIG. 13A/13B, GAL4-EcR(DEF) with VP16-RXR-USP chimera
[8] = EC50, FIG. 14A/14B, GAL4-EcR(DEF) with VP16-RXR-USP chimera
[9] = EC50, FIG. 13A/13B, BmEcR, GAL4-EcR(DEF) with VP16-RXR-USP chimera
[10] = EC50, FIG. 16, GAL4-EcR (DEF) / VP16-RXR-USP chimera

Row | SMILES | EC50 [1, 7] | EC50 [2, 8] | EC50 [3, 8] | EC50 [4, 8] | EC50 [5] | EC50 ([6]; FIG. 14A/14B, GAL4-EcR(DEF)) | EC50 ([5]; read-out: EC50) | EC50 [5, 9] | EC50 ([1]; EC50, FIG. 15, GAL4-EcR (DEF) / VP16-RXR-USP chimera) | EC50 [2, 10] | EC50 [3, 10] | EC50 [4, 10] | EC50 ([5]; EC50, FIG. 15, BmEcR, GAL4-EcR (DEF) / VP16-RXR-USP chimera) | EC50 ([6]; FIG. 16, GAL4-EcR (DEF))
1 | CC(C)(O)CC[C@@H](OC(=O)c1ccc[nH]1)[C@](C)(O)[C@H]1CC[C@@]2(O)C3=CC(=O)[C@@H]4C[C@@H](O)[C@@H](O)C[C@]4(C)[C@H]3CC[C@]12C | > 33 µM | ~15 µM | ~5 µM | ~20 µM | > 33 µM | ~5 µM | – | – | – | – | – | – | – | –
2 | CC(=O)OCC(=O)O[C@H](CCC(C)(C)O)[C@](C)(O)[C@H]1CC[C@@]2(O)C3=CC(=O)[C@@H]4C[C@@H](O)[C@@H](O)C[C@]4(C)[C@H]3CC[C@]12C [20-hydroxyecdysone 22-acetoxyacetate] | ~10 µM | ~12 µM | ~3.3 µM | ~20 µM | > 33 µM | 0.755 µM | – | – | – | – | – | – | – | –
3 | CC(C)(O)CC[C@@H](O)[C@](C)(O)[C@H]1CC[C@@]2(O)C3=CC(=O)[C@@H]4C[C@H]5OC(C)(C)O[C@H]5C[C@]4(C)[C@H]3CC[C@]12C [20-hydroxyecdysone-2,3-acetonide] | ~10 µM | ~15 µM | ~7 µM | > 33 µM | > 33 µM | 2.9 µM | – | – | – | – | – | – | – | –
4 | C[C@@H](CO)CC[C@@H](O)[C@](C)(O)[C@H]1CC[C@@]2(O)C3=CC(=O)[C@@H]4C[C@@H](O)[C@@H](O)C[C@]4(C)[C@H]3CC[C@]12C [(25R)-inokosterone] | ~10 µM | ~10 µM | ~3.3 µM | 9.46 µM | – | 0.867 µM | > 33 µM | – | – | – | – | – | – | –
5 | C[C@H](CO)CC[C@@H](O)[C@](C)(O)[C@H]1CC[C@@]2(O)C3=CC(=O)[C@@H]4C[C@@H](O)[C@@H](O)C[C@]4(C)[C@H]3CC[C@]12C [(25S)-inokosterone] | ~10 µM | ~10 µM | ~3.3 µM | ~20 µM | – | ~1.5 µM | > 33 µM | – | – | – | – | – | – | –
6 | CC(C(O)CCC(C)(C)O)C1CCC2(O)C3=CC(=O)C4CC(O)CCC4(C)C3CCC12C (centres unmarked) [Compound 2-deoxyecdysone] | > 33 µM | > 33 µM | ~1 µM | > 33 µM | – | ~6 µM | > 33 µM | – | – | – | – | – | – | –
7 | CC(C)(O)CC[C@@H](O)[C@](C)(O)[C@H]1CC[C@@]2(O)C3=C[C@H](O)[C@@H]4C[C@@H](O)[C@@H](O)C[C@]4(C)[C@H]3CC[C@]12C [Compound 6a-hydroxy-20-hydroxyecdysone] | > 33 µM | > 33 µM | 10 µM | > 33 µM | > 33 µM | ~10 µM | – | – | – | – | – | – | – | –
8 | CC(C)(O)CC[C@@H](O)[C@](C)(O)[C@H]1CC[C@@]2(O)C3=C[C@@H](O)[C@@H]4C[C@@H](O)[C@@H](O)C[C@]4(C)[C@H]3CC[C@]12C [Compound 6b-hydroxy-20-hydroxyecdysone] | ~12 µM | ~20 µM | ~3.3 µM | ~20 µM | > 33 µM | 1.7 µM | – | – | – | – | – | – | – | –
9 | CC(=O)O[C@H](CCC(C)(C)O)[C@](C)(O)[C@H]1CC[C@@]2(O)C3=CC(=O)[C@@H]4C[C@@H](O)[C@@H](O)C[C@]4(C)[C@H]3CC[C@]12C [Compound 20-hydroxyecdysone-22-acetate] | ~2 µM | ~2 µM | ~2 µM | > 33 µM | – | 2.44 µM | > 33 µM | – | – | – | – | – | – | –
10 | CC(C)(O)CCC(=O)[C@](C)(O)[C@H]1CC[C@@]2(O)C3=CC(=O)[C@@H]4C[C@@H](O)[C@@H](O)C[C@]4(C)[C@H]3CC[C@]12C [Compound 22-dehydro-20-hydroxyecdysone] | 10.3 µM | ~12 µM | ~7 µM | ~20 µM | > 33 µM | 1.84 µM | – | – | – | – | – | – | – | –
11 | CC(C)(O)CC[C@@H](O)[C@](C)(O)[C@H]1CC[C@@]2(O)C3=CC(=O)[C@@H]4C[C@@H](O)[C@@H](O)C[C@]4(C)C3=CC[C@]12C [Compound 25-hydroxydacryhainansterone] | ~10 µM | ~15 µM | ~3.3 µM | > 33 µM | > 33 µM | 1.26 µM | – | – | – | – | – | – | – | –
12 | CC(C)CC[C@@H](O)[C@](C)(O)[C@H]1CC[C@@]2(O)C3=CC(=O)[C@@H]4C[C@@H](O)[C@@H](O)C[C@]4(C)[C@H]3[C@H](O)C[C@]12C [ajugasterone C] | ~7 µM | 2.06 µM | ~0.2 µM | ~2 µM | – | 0.08 µM | – | ~10 µM | – | – | – | – | – | –
13 | CC(C)(O)C(CCC(C)(O)C1CCC2(O)C3=CC(=O)C4CC(O)C(O)CC4(C)C3CCC12C)OC(=O)c1ccc[nH]1 (centres unmarked) [canescensterone] | > 10 µM | ~0.2 µM | ~0.3 µM | ~0.5 µM | > 10 µM | ~0.33 µM | – | – | – | – | – | – | – | –
14 | CC1(C)OC(=O)C=C1CC(O)C(C)(O)C1CCC2(O)C3=CC(=O)C4CC(O)C(O)CC4(C)C3CCC12C (centres unmarked) [carthamosterone] | > 33 µM | > 33 µM | ~20 µM | > 33 µM | – | ~10 µM | > 33 µM | – | – | – | – | – | – | –
15 | C[C@@H]1C(=O)O[C@H](C)[C@H]1C[C@@H](O)[C@](C)(O)[C@H]1CC[C@@]2(O)C3=CC(=O)[C@@H]4C[C@@H](O)[C@@H](O)C[C@]4(C)[C@H]3CC[C@]12C [cyasterone] | 1.53 µM | ~10 µM | ~0.3 µM | > 33 µM | – | 1.82 µM | – | – | – | – | – | – | – | –
16 | C[C@H]([C@H](O)CCC(C)(C)O)[C@H]1CC[C@@]2(O)C3=CC(=O)[C@@H]4C[C@@H](O)[C@@H](O)C[C@]4(C)[C@H]3CC[C@]12C [ecdysone] | > 33 µM | > 33 µM | ~7 µM | > 33 µM | – | 3.27 µM | – | > 33 µM | > 33 µM | > 33 µM | > 33 µM | > 33 µM | > 33 µM | 2.52 µM
17 | CC(C)(O)CC[C@@H](O)[C@](C)(O)[C@H]1CC[C@@]2(O)C3=CC(=O)[C@@H]4C[C@@H](O)[C@@H](O)[C@@H](O)[C@]4(C)[C@H]3CC[C@]12C [integristerone A] | ~12 µM | ~20 µM | ~10 µM | > 33 µM | – | ~2 µM | > 33 µM | – | – | – | – | – | – | –
